US9861635B2, “Macrocycles as kinase inhibitors” (Merck Patent GmbH, priority 2013, dated 2018)
pIC50: −log10 of the molar value.

The compounds below were run against T1, GCN2 (Homo sapiens, UniProt Q9P2K8) (assay: GCN2 enzyme assay (TR-FRET Lanthascreen, GFP-eIF2alpha substrate)). Conditions: 10 μM ATP, 80 nM GFP-eIF2a, 30 nM GCN2.
Format: biochemical
Description: GCN2: Assay Principle & Conditions
This assay can quantificate the activity of the serin kinase GCN2 (general control non-derepressible-2).
This kinase is involved in the stress metabolism of cells. It is activated upon starvation (amino acid depletion). Its natural substrate is eIF2a (eukaryotic initiation factor 2 alpha subunit), a translation factor, which gets activated (phosphorylated) by GCN2 in case of an amino acid bottleneck in the cells. This in turn leads to a halt of the protein synthesis. Inhibition of GCN2 results in stopping this mechanism: The cell can not stop protein production upon “starvation” stress.
The assay is run in two steps: the enzymatic reaction and the detection step. In the first step GCN2 is incubated with 10 μM ATP and 80 nM of the GFP-labelled substrate eIF2alpha at room temperature.
The enzymatic reaction is stopped by addition of EDTA. The amount of phosphorylated eIF2alpha is determined by TR-FRET (Lanthascreen): A complex is formed consisting of antibody and GFP labelled phospho-eIF2a, which allows a FRET upon excitation at 340 nm.
The GCN2-activity is directly proportional to the ratio of fluorescence units at the emission wavelength 520 nm (phosphopeptide-sensitive wavelength=emission of GFP) to the units at 495 nm (reference wavelength=emission of Terbium-chelate).
Final Concentrations in the Enzymatic Reaction

T1 sequence (Q9P2K8 whole entry): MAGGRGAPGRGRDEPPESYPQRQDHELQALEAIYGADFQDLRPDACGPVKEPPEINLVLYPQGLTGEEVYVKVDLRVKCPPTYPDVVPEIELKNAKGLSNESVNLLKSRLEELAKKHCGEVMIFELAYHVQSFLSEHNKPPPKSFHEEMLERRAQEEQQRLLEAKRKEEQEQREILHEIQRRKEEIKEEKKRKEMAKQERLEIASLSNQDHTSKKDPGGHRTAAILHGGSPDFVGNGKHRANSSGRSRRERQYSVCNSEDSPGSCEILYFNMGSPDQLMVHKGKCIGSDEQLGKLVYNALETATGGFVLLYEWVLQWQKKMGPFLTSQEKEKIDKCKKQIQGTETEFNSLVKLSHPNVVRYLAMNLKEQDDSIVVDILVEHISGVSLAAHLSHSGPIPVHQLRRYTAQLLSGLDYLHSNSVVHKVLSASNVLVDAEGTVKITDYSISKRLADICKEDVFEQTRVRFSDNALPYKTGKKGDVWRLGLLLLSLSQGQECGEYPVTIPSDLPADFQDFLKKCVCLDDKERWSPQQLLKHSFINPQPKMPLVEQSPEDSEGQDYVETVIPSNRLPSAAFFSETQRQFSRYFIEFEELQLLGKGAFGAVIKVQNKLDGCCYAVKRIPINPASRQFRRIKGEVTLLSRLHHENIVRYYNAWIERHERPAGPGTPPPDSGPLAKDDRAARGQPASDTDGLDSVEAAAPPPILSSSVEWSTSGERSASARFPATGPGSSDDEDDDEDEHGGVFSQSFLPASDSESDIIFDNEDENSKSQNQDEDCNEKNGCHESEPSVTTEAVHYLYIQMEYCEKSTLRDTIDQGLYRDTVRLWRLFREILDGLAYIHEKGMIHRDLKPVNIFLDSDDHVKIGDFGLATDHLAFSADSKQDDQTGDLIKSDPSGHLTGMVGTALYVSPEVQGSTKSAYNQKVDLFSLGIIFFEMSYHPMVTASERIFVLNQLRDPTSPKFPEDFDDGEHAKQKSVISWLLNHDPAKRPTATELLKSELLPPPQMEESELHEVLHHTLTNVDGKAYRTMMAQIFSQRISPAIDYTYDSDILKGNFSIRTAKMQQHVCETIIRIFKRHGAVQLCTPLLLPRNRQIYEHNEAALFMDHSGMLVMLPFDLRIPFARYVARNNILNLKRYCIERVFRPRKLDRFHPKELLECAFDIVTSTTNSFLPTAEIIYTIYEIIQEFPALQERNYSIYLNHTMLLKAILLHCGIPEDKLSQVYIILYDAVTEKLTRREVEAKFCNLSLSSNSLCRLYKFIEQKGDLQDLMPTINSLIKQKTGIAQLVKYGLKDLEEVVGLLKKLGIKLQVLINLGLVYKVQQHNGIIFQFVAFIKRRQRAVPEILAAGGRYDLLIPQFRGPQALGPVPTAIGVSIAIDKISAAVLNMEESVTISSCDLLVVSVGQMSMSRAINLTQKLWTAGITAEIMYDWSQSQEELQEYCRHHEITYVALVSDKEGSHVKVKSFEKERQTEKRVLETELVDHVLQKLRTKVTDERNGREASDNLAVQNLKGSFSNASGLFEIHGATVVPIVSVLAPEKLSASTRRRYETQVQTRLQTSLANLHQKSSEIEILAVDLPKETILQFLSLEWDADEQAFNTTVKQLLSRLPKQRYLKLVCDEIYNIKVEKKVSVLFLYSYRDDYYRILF

| pIC50 | SMILES |
| --- | --- |
| > 6.00 | O=C1CCCOc2ccc(cc2)-n2nnc3cnc(nc32)Nc2cnn(c2)CCCN1 [Compound A2] |
| > 6.00 | O=C1CCCOc2ccc(cc2)-n2nnc3cnc(nc32)Nc2ccc(cc2)OCCCCN1 [Compound A4] |
| 5.30 to 6.00 | O=C1CCCn2cc(cn2)Nc2ncc3nnn(c3n2)-c2ccc(cc2)CN1 [Compound A22] |
| > 6.00 | O=C1CCCCOc2ccc(cc2)Nc2ncc3nnn(c3n2)-c2cnn(c2)CCCN1 [Compound A7] |
| > 6.00 | O=C1CCCCOc2ccc(cc2)-n2cnc3cnc(nc32)Nc2ccc(cc2)OCCCN1 [Compound A16] |
| > 6.00 | c1nn2cc1Nc1ncc3nnn(c3n1)-c1ccc(cc1)OCCNCCC2 [Compound A10] |
| 5.30 to 6.00 | O=C1CCCOc2ccc(cc2)-n2cnc3cnc(nc32)Nc2cnn(c2)CCCO1 [Compound A20] |
| 5.00 to 5.30 | O=C1CCOc2ccc(cc2)-n2nnc3cnc(nc32)Nc2ccc(cc2)CCCN1 [Compound A5] |
| > 6.00 | O=C1CCCOc2ccc(cc2)-n2cnc3cnc(nc32)Nc2cnn(c2)CCCN1 [Compound A14] |
| > 6.00 | O=C1CCn2cc(cn2)-n2nnc3cnc(nc32)Nc2cccc(c2)OCCCN1 [Compound A11] |
| 5.30 to 6.00 | O=C1CCCCOc2ccc(cc2)-n2nnc3cnc(nc32)Nc2cnn(c2)CCC2CCN1CC2 [Compound A17] |
| > 6.00 | O=C1CCCOc2ccc(cc2)-n2nnc3cnc(nc32)Nc2cccc(c2)OCCCN1 [Compound A13] |
| > 6.00 | O=C1CCCOc2ccc(cc2)-n2nnc3cnc(nc32)Nc2cnn(c2)CCN2CCN(CCCN1)CC2 [Compound A21] |
| > 6.00 | O=C1CCCCOc2ccc(cc2)-n2cnc3cnc(nc32)Nc2ccc(cc2)CCCN1 [Compound A19] |
| 5.00 to 5.30 | O=C1CCn2cc(cn2)-n2nnc3cnc(nc32)Nc2ccc(cc2)OCCCCN1 [Compound A9] |
| > 6.00 | O=C1CCCOc2ccc(cc2)-n2cnc3cnc(nc32)Nc2ccc(cc2)CCCN1 [Compound A18] |
| 5.00 to 5.30 | O=C1CCn2cc(cn2)-n2nnc3cnc(nc32)Nc2ccc(cc2)OCCCN1 [Compound A8] |
| 5.30 to 6.00 | O=C1CCCc2ccc(cc2)Nc2ncc3ncn(c3n2)-c2ccc(cc2)OCCCCN1 [Compound A27] |
| > 6.00 | O=C1CCCCOc2ccc(cc2)-n2nnc3cnc(nc32)Nc2cnn(c2)CCCN1 [Compound A26] |
| > 6.00 | O=C1CCCn2cc(cn2)Nc2ncc3nnn(c3n2)-c2ccc(cc2)OCCCN1 [Compound A24] |
| > 6.00 | O=C1CCCn2cc(cn2)Nc2ncc3nnn(c3n2)-c2cnn(c2)CCCN1 [Compound A23] |
| > 6.00 | O=C1CCOc2ccc(cc2)-n2nnc3cnc(nc32)Nc2cnn(c2)CCCN1 [Compound A1, 2,7-diaza-11-oxa-3H-1(5,3)-[1,2,3]triazolo[4,5-d]pyrimidina-1H-3(4,1)-pyrazola-12(1,4)-benzenacyclododecaphane-8-one] |
| > 6.00 | CN1CCCCn2cc(cn2)Nc2ncc3nnn(c3n2)-c2ccc(cc2)OCCCCC1=O [Compound A12] |
| > 6.00 | c1cc2ccc1CCNCCCCn1cc(cn1)Nc1ncc3nnn-2c3n1 [Compound A25] |
| 5.30 to 6.00 | O=C1CCCOc2ccc(cc2)-n2nnc3cnc(nc32)Nc2ccc(cc2)CCCN1 [Compound A6] |
| 5.30 to 6.00 | O=C1COc2ccc(cc2)-n2nnc3cnc(nc32)Nc2cnn(c2)CCCN1 [Compound A3] |
| > 6.00 | O=C1CCCOc2ccc(cc2)-n2cnc3cnc(nc32)Nc2ccc(cc2)OCCCN1 [Compound A15] |

Each compound was assayed against T1, GCN2 (assay: Cellular assay of GCN2 activity (phospho-eIF2alpha immunocytochemistry in U2OS cells, tryptophanol)). Conditions: 2 h compound, 600 μM tryptophanol 30 min.
Format: cell-based
Design: endogenous in cells; host or cells: U2OS
Description: Cellular Assay for the Determination of Compound Activities
Human U2OS cells (2000 cells/well) are seeded into 384-well plates and incubated for 20 hours.
The next day, the cells are treated with the test compounds and incubated for 2 hours. Then, tryptophanol, at a final concentration of 600 μM, is added to the cells and those are incubated for 30 minutes.
The analysis of cellular GCN2 activities is done by immunocytochemistry. Briefly, cells are fixated on the well surfaces by formaldehyde and permeabilized with Triton X-100. The primary antibody (anti-phospho-eIF2alpha (Ser51, Cell Signalling Technology, #3398) is incubated on the treated cells for 20 hours, followed by a 60 minutes incubation of the secondary antibody (anti-rabbit-IgG-Alexa 488; Molecular Probes #11008).
The analysis and quantification of phosphorylated GCN2 is done by scanning the plates in the Acumen Explorer system (TTPLabtech). The obtained data are normalised against the untreated control wells (DMSO only) and expressed as % effect values. The determination of IC50 values is done by using the Graph Pad Prism software.

| pIC50 | SMILES |
| --- | --- |
| > 6.00 | O=C1CCCCOc2ccc(cc2)-n2nnc3cnc(nc32)Nc2cnn(c2)CCCN1 [Compound A26] |
